# Test results as given in US20220096431A1, “PHARMACEUTICAL COMPOSITION AND METHOD FOR PREVENTING, TREATING AND DIAGNOSING A NEURODEGENERATIVE DISEASE” (BUDDHIST TZU CHI MEDICAL FOUNDATION, priority 2020, published 2022).
# “Also recorded” adds a separate entry of the source.
# What was measured:
# [1] = system: miR-29b-2-5p and PSEN1 expression in Ts-21 iPSCs; experiment: Real-time PCR of miR-29b-2-5p and PSEN1 in Ts-21 iPSCs; assay type: cell-based, human; settings: 100 μM n-BP
# Text: FIGS. 6A and 6B show the RT-qPCR analysis result of expression levels of miR-29b-2-5p/miR-9-5p and PSEN1/β-actin with or without […] n-BP. n=3 for each group.
# 3xTg transgenic mice = experiment: Amyloid accumulation in the brain of 3xTg transgenic mice, single and combined treatment (FIG. 11); assay type: in vivo; settings: 3xTg mice; 60 mg/kg n-butylidenephthalide, 200 mg/kg vitamin C, alone or combined; vs olive oil control
# [2] = system: NICD, Aβ1-42 and PSEN1 in iPSC-derived human neurons; experiment: Western blot of NICD, Aβ1-42 and PSEN1 in iPSC-derived human neurons; assay type: cell-based; settings: 100 μM n-BP, 48 h
# Experimental: Because the Notch intracellular domain (NICD) is most relevant to the development of AD drugs, western blot analysis was conducted to explore the effect of 100 μM n-BP-induced inhibition of Notch cleavage in iPSC-derived human neurons and on the expressions of miR-29b-2-5p and PSEN1. […] The change in the expressions of miR-29b-2-5p, PSEN1, and Aβ1-42 was therefore consistent with those observed in n-BP-treated Ts-21 iPSCs.
# [3] = system: PSEN-1, PSEN-2, Aβ1-42 and NICD in C6-C99 cells; experiment: Western blotting of amyloid-related proteins in C6-C99 cells; assay type: cell-based; settings: C6-C99 cells
# Text: FIG. 3B to FIG. 3E are the quantitative results of the Western blotting analysis of PSEN-1, PSEN-2, β-amyloid 1-42 (Aβ1-42) and NICD in FIG. 3A, respectively (p*<0.05, p**<0.01). The C6-C99 cells used in FIGS. 3A to 3E are glioma cells having a fragment of human amyloid precursor protein (APP). This fragment is a peptide fragment with 99 amino acids (APP-C99), which can express large amounts of PSEN-1, PSEN-2, and Aβ 1-42 after activation by cumate.
# Western blotting is used to detect the expression levels of amyloid-related proteins, including PSEN-1, PSEN-2, and β-amyloid 1-42 (Aβ1-42), while simultaneously detect the expression level of Notch protein (Notch intracellular domain, NICD), which is an indicator of drug safety. If the Notch protein is not affected, then drug safety is indicated.
# APP-C99 was transfected into C6 cells with the C99 peptide through cumate-inducible system activation.
# SH-SY5Y = experiment: MTT cell viability of SH-SY5Y cells; settings: n-Bp 100 μM, vitamin C 200 μM
# Text: Then, the cell viability is detected by a cell survival test using (3-(4,5-dimethylthiazol-2-yl)-2,5-diphenyltetrazolium bromide (MTT) assay.
# [4] = system: Ts-21 iPSCs (neurons with Alzheimer's disease symptoms); experiment: Gene microarray analysis of n-BP-treated Ts-21 iPSCs; assay type: cell-based, human
# Text: To examine the mechanism by which n-BP regulated miR expression, n-BP-treated Ts-21 iPSCs were subjected to gene microarray analysis. […] The 4 predicted binding energy between lnc-CYP3A43-2 and miR-29b-2-5p are the lowest (−11.49 Kcal/mol) among these four lncRNA and the predicted target sequence between lnc-CYP3A43-2 and miR-29b-2-5p are shown in FIG. 6G.
# For example, ATP6V0D2 and IST1 are autophagy-related genes, and the expression levels thereof increase by 30.07 times and 15.72 times, respectively, after administration of n-butylidenephthalide, while genes related to inflammation including NT5E, STAP1, DEC1, ADAMDEC1 have their expression levels reduced by 12.6, 12.79, 28.35 and 43.55 times, respectively.
# C6-C99 cells = experiment: Flow cytometry of C6-C99 cells (cumate-induced fluorescence); assay type: cell-based; settings: 100 μM n-BP
# Experimental: Red peak, fluorescence of C6-C99 cells without cumate activation (background). Green peak, with cumate. Blue peak, with n-BP.
# Then, C6-C99 cells were used to explore the effect of 100 μM n-butylidenephthalide (n-BP) on the expressions of miR-29b-2-5p, PSEN1, and Aβ1-42. […] Also shown in FIGS. 4G to 4I are the results of using miR-29b-2-5p inhibitor to evaluate whether n-BP inhibited PSEN1 and Aβ1-42 expression through miR-29b-2-5p. Specifically, miR-29b-2-5p inhibitor was transfected into C6-C99 cells and examined the inhibitory effect of n-BP treatment on PSEN1 and Aβ1-42 expression. It was observed that the addition of the miR-29b-2-5p inhibitor to C6-C99 cells abolished the 100 μM n-BP induced decrease in PSEN1 and Aβ1-42 expression.
# [5] = neurons with Alzheimer's disease symptoms, autophagy-related gene
# [6] = neurons with Alzheimer's disease symptoms, inflammation-related gene
smiles,measurement,setting,value
"CCCC=C1OC(=O)c2ccccc21 [n-BP, n-butylidenephthalide]","Expression levels of other AD-related genes BACE1, PSEN2, APOE3 and APOE4",[1],without significant difference
same,PSEN1 expression (real-time PCR),[1],58.10%±29.28%
same,miR-29b-2-5p expression,[1],12.38 fold
same,Therapeutic effect on accumulation of amyloid in the brain,3xTg transgenic mice,significantly improved therapeutic effect
same,Aβ1-42 protein expression,[2],35.02%±24.39%
same,Expression of proteins in NICD,[2],no change
same,PSEN1 protein expression,[2],65.94%±4.52%
same,Aβ1-42 expression,[3]; 100 μM n-BP,40.53%±28.46%
same,PSEN1 expression,[3]; 100 μM n-BP,37.33%±23.1%
same,Aβ1-42 expression,"[3]; 100 μM, FIG. 3",significantly reduced
same,"Notch protein (NICD) expression, indicator of drug safety","[3]; 100 μM, FIG. 3",not affected
same,PSEN-1 expression,"[3]; 100 μM, FIG. 3",significantly reduced
same,PSEN-2 expression,"[3]; 100 μM, FIG. 3",significantly reduced
same,Cell survival (biosafety),SH-SY5Y,Neither butylidenephthalide nor vitamin C has any effect on cell survival
same,Multiple of change,"[4]; gene A 21 P0014752, neurons with Alzheimer's disease symptoms",17.29
same,Multiple of change,"[4]; gene ADAMDECI, neurons with Alzheimer's disease symptoms",−43.55
same,Multiple of change,"[4]; gene ATP6VOD2, neurons with Alzheimer's disease symptoms",30.07
same,Multiple of change,"[4]; gene BG182298, neurons with Alzheimer's disease symptoms",−11.75
same,Multiple of change,"[4]; gene CTLA4, neurons with Alzheimer's disease symptoms",29.78
same,Multiple of change,"[4]; gene DECI, neurons with Alzheimer's disease symptoms",−28.35
same,Multiple of change,"[4]; gene EN ST00000442006, neurons with Alzheimer's disease symptoms",−26.17
same,Multiple of change,"[4]; gene EN ST00000552046, neurons with Alzheimer's disease symptoms",−38.01
same,Multiple of change,"[4]; gene EN ST00000589476, neurons with Alzheimer's disease symptoms",−26.08
same,Multiple of change,"[4]; gene ENST00000427341, neurons with Alzheimer's disease symptoms",36.49
same,Multiple of change,"[4]; gene ENST00000444130, neurons with Alzheimer's disease symptoms",21.29
same,Multiple of change,"[4]; gene ENST00000496217, neurons with Alzheimer's disease symptoms",50.33
same,Multiple of change,"[4]; gene ENST00000503666, neurons with Alzheimer's disease symptoms",47.83
same,Multiple of change,"[4]; gene ENST00000554445, neurons with Alzheimer's disease symptoms",27.81
same,Multiple of change,"[4]; gene ENST00000556397, neurons with Alzheimer's disease symptoms",30.44
same,Multiple of change,"[4]; gene GATA3, neurons with Alzheimer's disease symptoms",10.76
same,Multiple of change,"[4]; gene ISTI, neurons with Alzheimer's disease symptoms",15.72
same,Multiple of change,"[4]; gene Inc-DCTD-2, neurons with Alzheimer's disease symptoms",9.25
same,Multiple of change,"[4]; gene Inc-RP11-766F14.2.1-1, neurons with Alzheimer's disease symptoms",−34.38
same,Multiple of change,"[4]; gene LOC100131532, neurons with Alzheimer's disease symptoms",47.19
same,Multiple of change,"[4]; gene LOC101060106, neurons with Alzheimer's disease symptoms",22.27
same,Multiple of change,"[4]; gene LOC101928280, neurons with Alzheimer's disease symptoms",−43.14
same,Multiple of change,"[4]; gene LOC101928885, neurons with Alzheimer's disease symptoms",21.40
same,Multiple of change,"[4]; gene MBOATI, neurons with Alzheimer's disease symptoms",−4.65
same,Multiple of change,"[4]; gene NCFIB, neurons with Alzheimer's disease symptoms",34.03
same,Multiple of change,"[4]; gene NT5E, neurons with Alzheimer's disease symptoms",−12.60
same,Multiple of change,"[4]; gene SAP30L-AS1, neurons with Alzheimer's disease symptoms",5.80
same,Multiple of change,"[4]; gene SH3RF3, neurons with Alzheimer's disease symptoms",23.23
same,Multiple of change,"[4]; gene SPANXN3, neurons with Alzheimer's disease symptoms",23.24
same,Multiple of change,"[4]; gene STAPI, neurons with Alzheimer's disease symptoms",−12.79
same,Multiple of change,"[4]; gene TAC4, neurons with Alzheimer's disease symptoms",12.64
same,Multiple of change,"[4]; gene TDRD5, neurons with Alzheimer's disease symptoms",31.41
same,Multiple of change,"[4]; gene THC2717143, neurons with Alzheimer's disease symptoms",29.19
same,Multiple of change,"[4]; gene TMC3-AS1, neurons with Alzheimer's disease symptoms",6.53
same,Multiple of change,"[4]; gene TSKS, neurons with Alzheimer's disease symptoms",8.21
same,Multiple of change,"[4]; gene TTTY14, neurons with Alzheimer's disease symptoms",−22.89
same,Multiple of change,"[4]; gene XLOC 12 011873, neurons with Alzheimer's disease symptoms",6.35
same,Multiple of change,"[4]; gene lnc-AL450307.1-1, neurons with Alzheimer's disease symptoms",−56.05
same,Multiple of change,"[4]; gene lnc-C50rf49-2, neurons with Alzheimer's disease symptoms",34.90
same,Multiple of change,"[4]; gene lnc-CYP3A43-2, neurons with Alzheimer's disease symptoms",−60.06
same,Multiple of change,"[4]; gene lnc-FZDIO-3, neurons with Alzheimer's disease symptoms",39.19
same,Multiple of change,"[4]; gene lnc-ILIRI-1, neurons with Alzheimer's disease symptoms",−39.19
same,Multiple of change,"[4]; gene lnc-KCNC2-4, neurons with Alzheimer's disease symptoms",−8.92
same,Multiple of change,"[4]; gene lnc-KCNG3-1, neurons with Alzheimer's disease symptoms",29.33
same,Multiple of change,"[4]; gene lnc-KHDRBS3-9, neurons with Alzheimer's disease symptoms",27.98
same,Multiple of change,"[4]; gene lnc-P2RY2-3, neurons with Alzheimer's disease symptoms",−105.51
same,Multiple of change,"[4]; gene lnc-PGPEPIL-I, neurons with Alzheimer's disease symptoms",35.28
same,Multiple of change,"[4]; gene lnc-PTGES-I, neurons with Alzheimer's disease symptoms",28.50
same,Multiple of change,"[4]; gene lnc-USP16-7, neurons with Alzheimer's disease symptoms",31.72
same,Multiple of change,"[4]; gene lnc-ZBTB7C-1, neurons with Alzheimer's disease symptoms",−60.03
same,Expression of four long noncoding RNA (lncRNA),[4]; n-BP-treated Ts-21 iPSCs,less than −50 fold
same,"ATP6V0D2 expression level, increase",[4]; [5],30.07 times
same,"IST1 expression level, increase",[4]; [5],15.72 times
same,"ADAMDEC1 expression level, reduced by",[4]; [6],43.55 times
same,"DEC1 expression level, reduced by",[4]; [6],28.35 times
same,"NT5E expression level, reduced by",[4]; [6],12.6 times
same,"STAP1 expression level, reduced by",[4]; [6],12.79 times
same,Cumate expression / fluorescence of C6-C99 cells,C6-C99 cells,did not affect; also recorded: does not affect the fluorescence of C6-C99
